The values that follow come from patent US9371294B2, “Cycloalkenyl aryl derivatives for CETP inhibitor” (CHONG KUN DANG PHARMACEUTICAL CORP., priority 2011, dated 2016).

pIC50: −log10 of the molar value.

This assay deals with T1, cholesteryl ester transfer protein (Homo sapiens, UniProt P11597).
T1 construct: As a source of cholesteryl ester transfer protein, plasma from healthy humans was used; from tissue; host or cells: plasma from healthy humans
T1 sequence (P11597 18-493): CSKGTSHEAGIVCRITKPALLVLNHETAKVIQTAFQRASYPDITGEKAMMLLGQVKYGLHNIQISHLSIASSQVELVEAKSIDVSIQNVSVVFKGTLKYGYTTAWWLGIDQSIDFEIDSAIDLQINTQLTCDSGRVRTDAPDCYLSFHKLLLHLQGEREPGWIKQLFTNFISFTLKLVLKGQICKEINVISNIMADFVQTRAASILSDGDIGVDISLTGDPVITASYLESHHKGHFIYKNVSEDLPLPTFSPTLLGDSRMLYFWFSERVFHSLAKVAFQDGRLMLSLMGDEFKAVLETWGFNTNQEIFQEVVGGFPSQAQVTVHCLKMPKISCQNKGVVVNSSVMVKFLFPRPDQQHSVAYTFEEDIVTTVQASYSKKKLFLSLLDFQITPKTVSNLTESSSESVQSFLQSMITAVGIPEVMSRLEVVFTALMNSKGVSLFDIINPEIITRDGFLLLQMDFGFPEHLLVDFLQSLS
Description: In vitro test for the ability to inhibit cholesteryl ester transfer. It counts as biochemical. Conditions: [3H]-cholesteryl oleate transfer from rHDL-agarose to LDL; human plasma as CETP source; 37° C.; 16-10000 nM, duplicate. A digest of the protocol: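 Human plasma served as the CETP source, with human LDL (0.25 mg/ml) as acceptor and agarose-immobilised recombinant HDL carrying [3H]-cholesteryl oleate (0.25 mg/ml) as donor, at 37 °C. Compounds were run in duplicate at 16–10000 nM. Transferred radioactivity in the supernatant was counted by beta detection, and IC50 was fitted from the fraction of label transferred to LDL.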

`COc1cc(C(F)(F)F)c(N(C)C(=O)C(F)(F)F)cc1C1=C(CN2C(=O)O[C@H](c3cc(C(F)(F)F)cc(C(F)(F)F)c3)[C@@H]2C)CC(C)(C)CC1` [Compound 227, N-(5-(2-(((4S,5R)-5-(3,5-bis(trifluoromethyl)phenyl)-4-methyl-2-oxooxazolidin-3-yl)methyl)-4,4-dimethylcyclohex-1-enyl)-4-methoxy-2-(trifluoromethyl)phenyl)-2,2,2-trifluoro-N-methylacetamide]: the pIC50 was 6.85.
With `COc1cc(F)c(C(C)C)cc1C1=C(CN2C(=O)O[C@H](c3cc(C(F)(F)F)cc(C(F)(F)F)c3)[C@@H]2C)CCCC1` [Compound 27, (4S,5R)-5-(3,5-bis(trifluoromethyl)phenyl)-3-((2-(4-fluoro-5-isopropyl-2-methoxyphenyl)cyclohex-1-enyl)methyl)-4-methyloxazolidin-2-one], the pIC50 was 6.62.
For `COc1ccc(N(C)C(=O)C(C)(C)O)cc1C1=C(CN2C(=O)O[C@H](c3cc(C(F)(F)F)cc(C(F)(F)F)c3)[C@@H]2C)CC(C)(C)CC1` [Compound 244, N-(3-(2-(((4S,5R)-5-(3,5-bis(trifluoromethyl)phenyl)-4-methyl-2-oxooxazolidin-3-yl)methyl)-4,4-dimethylcyclohex-1-enyl)-4-methoxyphenyl)-2-hydroxy-N,2-dimethylpropanamide], the pIC50 is 7.70.
The compound `COc1cc(F)c(C(C)C)cc1C1=C(CN2C(=S)O[C@H](c3cc(C(F)(F)F)cc(C(F)(F)F)c3)[C@@H]2C)CC(C)CC1` (stereo partly drawn) [Compound 26, (4S,5R)-5-(3,5-bis(trifluoromethyl)phenyl)-3-((2-(4-fluoro-5-isopropyl-2-methoxyphenyl)-5-methylcyclohex-1-enyl)methyl)-4-methyloxazolidine-2-thione] had a pIC50 of 6.04.
In turn, `COc1ccc(C(C)C)nc1C1=C(CN2C(=O)O[C@H](c3cc(C(F)(F)F)cc(C(F)(F)F)c3)[C@@H]2C)CC(C)(C)CC1` [Compound 366, (4S,5R)-5-(3,5-bis(trifluoromethyl)phenyl)-3-((2-(6-isopropyl-3-methoxypyridin-2-yl)-5,5-dimethylcyclohex-1-enyl)methyl)-4-methyloxazolidin-2-one] had a pIC50 of 8.22.
With `CNC(=O)C(C)(C)Cc1ccc(OC)c(C2=C(CN3C(=O)O[C@H](c4cc(C(F)(F)F)cc(C(F)(F)F)c4)[C@@H]3C)CC(C)(C)CC2)c1` [Compound 321, 3-(3-(2-(((4S,5R)-5-(3,5-bis(trifluoromethyl)phenyl)-4-methyl-2-oxooxazolidin-3-yl)methyl)-4,4-dimethylcyclohex-1-enyl)-4-methoxyphenyl)-N,2,2-trimethylpropanamide] the figure was 6.98; with `COc1cc(F)c(C2CC2)cc1C1=C(CN2C(=O)O[C@H](c3cc(C(F)(F)F)cc(C(F)(F)F)c3)[C@@H]2C)CC(C)(C)CC1` [Compound 237, (4S,5R)-5-(3,5-bis(trifluoromethyl)phenyl)-3-((2-(5-cyclopropyl-4-fluoro-2-methoxyphenyl)-5,5-dimethylcyclohex-1-enyl)methyl)-4-methyloxazolidin-2-one], 8.05.
Regarding `CCc1cc(OC)c(C2=C(CN3C(=O)O[C@H](c4cc(C(F)(F)F)cc(C(F)(F)F)c4)[C@@H]3C)CC(C)(C)CC2)cc1N(C)C(C)=O` [Compound 234, N-(5-(2-(((4S,5R)-5-(3,5-bis(trifluoromethyl)phenyl)-4-methyl-2-oxooxazolidin-3-yl)methyl)-4,4-dimethylcyclohex-1-enyl)-2-ethyl-4-methoxyphenyl)-N-methylacetamide], the pIC50 was 7.70.
With `COc1ccc(C2=N[C@H](C(C)C)CO2)cc1C1=C(CN2C(=O)O[C@H](c3cc(C(F)(F)F)cc(C(F)(F)F)c3)[C@@H]2C)CC(C)(C)CC1` [Compound 188, (4S,5R)-5-(3,5-bis(trifluoromethyl)phenyl)-3-((2-(5-((R)-4-isopropyl-4,5-dihydrooxazol-2-yl)-2-methoxyphenyl)-5,5-dimethylcyclohex-1-enyl)methyl)-4-methyloxazolidin-2-one] the figure was 6.92; with `COc1ccc(N(C)S(C)(=O)=O)cc1C1=C(CN2C(=O)O[C@H](c3cc(C(F)(F)F)cc(C(F)(F)F)c3)[C@@H]2C)CC(C)(C)CC1` [Compound 128, N-(3-(2-(((4S,5R)-5-(3,5-bis(trifluoromethyl)phenyl)-4-methyl-2-oxooxazolidin-3-yl)methyl)-4,4-dimethylcyclohex-1-enyl)-4-methoxyphenyl)-N-methylmethanesulfonamide], 7.22.
With `COC(=O)C1(Cc2ccc(OC)c(C3=C(CN4C(=O)O[C@H](c5cc(C(F)(F)F)cc(C(F)(F)F)c5)[C@@H]4C)CC(C)(C)CC3)c2)CCCC1` [Compound 323, methyl 1-(3-(2-(((4S,5R)-5-(3,5-bis(trifluoromethyl)phenyl)-4-methyl-2-oxooxazolidin-3-yl)methyl)-4,4-dimethylcyclohex-1-enyl)-4-methoxybenzyl)cyclopentanecarboxylate] the figure was 7.24.
The value for `COc1ccc(C(C)C)cc1C1=C(CN2C(=O)O[C@H](c3cc(C(F)(F)F)cc(C(F)(F)F)c3)[C@@H]2C)CC(C)(C)CC1` [Compound 107, (4S,5R)-5-(3,5-bis(trifluoromethyl)phenyl)-3-((2-(5-isopropyl-2-methoxyphenyl)-5,5-dimethylcyclohex-1-enyl)methyl)-4-methyloxazolidin-2-one] was 8.40; that for `COc1ncc(C(F)(F)F)cc1C1=C(CN2C(=O)O[C@H](c3cc(C(F)(F)F)cc(C(F)(F)F)c3)[C@@H]2C)CC(C)(C)CC1` [Compound 316, (4S,5R)-5-(3,5-bis(trifluoromethyl)phenyl)-3-((2-(2-methoxy-5-(trifluoromethyl)pyridin-3-yl)-5,5-dimethylcyclohex-1-enyl)methyl)-4-methyloxazolidin-2-one] was 7.52; that for `COc1ccc(C2=NCCO2)cc1C1=C(CN2C(=O)O[C@H](c3cc(C(F)(F)F)cc(C(F)(F)F)c3)[C@@H]2C)CC(C)(C)CC1` [Compound 185, (4S,5R)-5-(3,5-bis(trifluoromethyl)phenyl)-3-((2-(5-(4,5-dihydrooxazol-2-yl)-2-methoxyphenyl)-5,5-dimethylcyclohex-1-enyl)methyl)-4-methyloxazolidin-2-one] was 6.74.
In the case of `COc1ccc([N+](=O)[O-])cc1C1=C(CN2C(=O)O[C@H](c3cc(C(F)(F)F)cc(C(F)(F)F)c3)[C@@H]2C)CC(C(F)(F)F)CC1` (stereo partly drawn) [Compound 194, (4S,5R)-5-(3,5-bis(trifluoromethyl)phenyl)-3-((2-(2-methoxy-5-nitrophenyl)-5-(trifluoromethyl)cyclohex-1-enyl)methyl)-4-methyloxazolidin-2-one], the pIC50 was 7.00.
As to `COc1cc(F)c(C(=O)C(F)(F)F)cc1C1=C(CN2C(=O)O[C@H](c3cc(C(F)(F)F)cc(C(F)(F)F)c3)[C@@H]2C)CC(C)(C)CC1` [Compound 191, (4S,5R)-5-(3,5-bis(trifluoromethyl)phenyl)-3-((2-(4-fluoro-2-methoxy-5-(2,2,2-trifluoroacetyl)phenyl)-5,5-dimethylcyclohex-1-enyl)methyl)-4-methyloxazolidin-2-one], the negative-log IC50 (pIC50) is 7.05.
The value for `COc1cc(F)c(C(C)C)cc1C1=C(CN2C(=S)O[C@H](c3cc(C(F)(F)F)cc(C(F)(F)F)c3)[C@@H]2C)CC(C)(C)CC1` [Compound 17, (4S,5R)-5-(3,5-bis(trifluoromethyl)phenyl)-3-((2-(4-fluoro-5-isopropyl-2-methoxyphenyl)-5,5-dimethylcyclohex-1-enyl)methyl)-4-methyloxazolidine-2-thione] was 6.29; that for `COc1ccccc1C1=C(CN2C(=O)O[C@H](c3cc(C(F)(F)F)cc(C(F)(F)F)c3)[C@@H]2C)CC(C)(C)CC1` [Compound 18, (4S,5R)-5-(3,5-bis(trifluoromethyl)phenyl)-3-((2-(2-methoxyphenyl)-5,5-dimethylcyclohex-1-enyl)methyl)-4-methyloxazolidin-2-one] was 5.87; that for `COc1cc(F)c(C(C)C)cc1C1=C(CN2C(=O)O[C@H](c3cc(C(F)(F)F)cc(C(F)(F)F)c3)[C@@H]2C)CCC(C)(C)C1` [Compound 109, (4S,5R)-5-(3,5-bis(trifluoromethyl)phenyl)-3-((2-(4-fluoro-5-isopropyl-2-methoxyphenyl)-4,4-dimethylcyclohex-1-enyl)methyl)-4-methyloxazolidin-2-one] was 7.70.

One may read the pIC50 as the negative decadic logarithm of the IC50, by convention in mol/L. Read a low pIC50 as a large IC50.
